Like-named read-outs stand apart in the source and are kept apart here.
Tested on: SMN protein
Assay: cellular SMN ELISA (SMN protein elevation) in myoblast cell line from SMNdelta7 mouse model
Type: cell-based
Procedure: A cellular SMN ELISA was used to measure the effects of low molecular weight compounds on SMN protein elevation. Cells from a myoblast cell line derived from the SMNdelta7 mouse model (kind gift from Steve Burden, NYU) were seeded into a 384-well plate at a density of 3000 cells/well and treated with compounds for 24 hours. ELISA capture plates were prepared by coating 384-well plates (Immulon 4HBX) with 0.5 ug/mL of anti-SMN mAb (BD Science, Catalog number 610647) at 4° C. overnight. The plates were washed 5 times with 110 uL of PBS-Tween (0.05% Tween-20, PBST), blocked with 100 uL of 1% BSA in PBST for 2 hours and washed (5 times) with 100 uL of PBST. After 24 hours of compound treatment cells were lysed in a modified RIPA-buffer, on ice for 1 hour. 20 uL of lysate and 20 uL of 1% BSA were then added to the ELISA capture plates and incubated at 4° C. overnight. Plates were washed (5 times) with PBST and then incubated with 1:100 dilution of primary rabbit anti-SMN polyclonal antibody (Santa cruz, Catalog number SC-15320) at room temperature for 1 hour and subsequently washed (5 times) with 110 uL of PBST. This was followed by addition of 1:100 Goat anti-Rabbit IgG-HRP linked (Cell Signaling, Catalog number 7074) secondary antibody for 1 hour. Plates were then washed with PBST and incubated with 40 uL TMB substrate (Cell Signaling, Catalog number 7004 L) at room temperature for 1-10 minutes with shaking. The reaction was stopped by addition of 40 uL of stop solution (Cell signaling, Catalog number 7002 L) and absorption was measured at 450 nm. Data was reported as fold activation over DMSO control, and EC50.
ELISA assay condition 1: compound concentration range 20 nM-10 uM; ELISA assay condition 2: compound concentration 100 pM-10 uM. Data generated in Biological Example 1 using ELISA conditions 1 or 2.

[1] = Biological Example 1, SMN ELISA, SMNdelta7 mouse myoblasts, 24 hours compound treatment
[2] = Biological Example 1, SMN ELISA, SMNdelta7 mouse myoblasts, 24 hours compound treatment, read-out: SMN Activity (EC50)

| SMILES | SMN Activity (fold activation over DMSO control) [1] [fold] | EC50 [2] [µM] | Fold activation (comparison of unsubstituted, ortho-hydroxy and ortho-alkoxy pyridazines, as in Biological Example 1) | EC50 (comparison of unsubstituted, ortho-hydroxy and ortho-alkoxy pyridazines, as in Biological Example 1, read-out: SMN ELISA EC50) [µM] |
| --- | --- | --- | --- | --- |
| Cc1cc(N2CCCC2)c2cc(-c3ccc(N(C)C4CC(C)(C)NC(C)(C)C4)nn3)c(O)cc2n1 [Example 10-2, 2-methyl-6-(6-(methyl(2,2,6,6-tetramethylpiperidin-4-yl)amino)pyridazin-3-yl)-4-(pyrrolidin-1-yl)quinolin-7-ol] | 2.6 | 0.065 |  |  |
| Cc1cc(N2CCOCC2)c2cc(-c3ccc(N(C)C4CC(C)(C)NC(C)(C)C4)nn3)c(O)cc2n1 [Example 10-3, 2-Methyl-6-(6-(methyl(2,2,6,6-tetramethylpiperidin-4-yl)amino)pyridazin-3-yl)-4-morpholinoquinolin-7-ol] | 2.6 | 0.11 |  |  |
| Cc1cc(N(C)C)c2cc(-c3ccc(N(C)C4CC(C)(C)NC(C)(C)C4)nn3)c(O)cc2n1 [Example 10-4, 4-(Dimethylamino)-2-methyl-6-(6-(methyl(2,2,6,6-tetramethylpiperidin-4-yl)amino)pyridazin-3-yl)quinolin-7-ol] | 2.7 | 0.012 |  |  |
| CCOc1cc(C)nc2cc(O)c(-c3ccc(N(C)C4CC(C)(C)NC(C)(C)C4)nn3)cc12 [Example 10-5, 4-Ethoxy-2-methyl-6-(6-(methyl(2,2,6,6-tetramethylpiperidin-4-yl)amino)pyridazin-3-yl)quinolin-7-ol] | 3.3 | 0.02 |  |  |
| Cc1cc(-c2cnn(C)c2)c2cc(-c3ccc(N(C)C4CC(C)(C)NC(C)(C)C4)nn3)c(O)cc2n1 [Example 11-1, 2-methyl-6-(6-(methyl(2,2,6,6-tetramethylpiperidin-4-yl)amino)pyridazin-3-yl)-4-(1-methyl-1H-pyrazol-4-yl)quinolin-7-ol] | 2.6 | 0.06 |  |  |
| COc1ccnc2cc(-c3ccc(N(C)C4CC(C)(C)NC(C)(C)C4)nn3)c(O)cc12 [Example 12-1, 4-methoxy-7-(6-(methyl(2,2,6,6-tetramethylpiperidin-4-yl)amino)pyridazin-3-yl)quinolin-6-ol] | 2.4 | 0.003 |  |  |
| CN(c1ccc(-c2cc3nccnc3cc2O)nn1)C1CC(C)(C)NC(C)(C)C1 [Example 13-1, 7-(6-(methyl(2,2,6,6-tetramethylpiperidin-4-yl)amino)pyridazin-3-yl)quinoxalin-6-ol] | 2.7 | 0.009 | 2.7 — | 0.009 |
| CN(c1ccc(-c2cc3cc(C4CCOCC4)cnc3cc2O)nn1)C1CC(C)(C)NC(C)(C)C1 [Example 14-1, 6-(6-(methyl(2,2,6,6-tetramethylpiperidin-4-yl)amino)pyridazin-3-yl)-3-(tetrahydro-2H-pyran-4-yl)quinolin-7-ol] | 2.91 | 0.063 |  |  |
| CN(c1ccc(-c2cc3ncc(Cl)cc3cc2O)nn1)C1CC(C)(C)NC(C)(C)C1 [Example 15-1, 3-chloro-7-(6-(methyl(2,2,6,6-tetramethylpiperidin-4-yl)amino)pyridazin-3-yl)quinolin-6-ol] | 2.68 | 0.016 |  |  |
| CN(c1ccc(-c2cc3ncc(Br)cc3cc2O)nn1)C1CC(C)(C)NC(C)(C)C1 [Example 15-2, 3-bromo-7-(6-(methyl(2,2,6,6-tetramethylpiperidin-4-yl)amino)pyridazin-3-yl)quinolin-6-ol] | 2.52 | 0.019 |  |  |
| Cc1cnc2cc(-c3ccc(N(C)C4CC(C)(C)NC(C)(C)C4)nn3)c(O)cc2c1 [Example 15-3, 3-methyl-7-(6-(methyl(2,2,6,6-tetramethylpiperidin-4-yl)amino)pyridazin-3-yl)quinolin-6-ol] | 3.28 | 0.007 |  |  |
| Cc1cnc2cc(-c3ccc(N(C)C4CC(C)(C)NC(C)(C)C4)nn3)c(O)c(Br)c2c1 [Example 16-1, 5-bromo-3-methyl-7-(6-(methyl(2,2,6,6-tetramethylpiperidin-4-yl)amino)pyridazin-3-yl)quinolin-6-ol] | 2.44 | 0.258 |  |  |
| CN(c1ccc(-c2cc3c(cc2O)c(=O)ccn3C)nn1)C1CC(C)(C)NC(C)(C)C1 [Example 17-1, 6-hydroxy-1-methyl-7-(6-(methyl(2,2,6,6-tetramethylpiperidin-4-yl)amino)pyridazin-3-yl)quinolin-4(1H)-one] | 2.56 | 0.685 |  |  |
| Cc1nc2cc(O)c(-c3ccc(N(C)C4CC(C)(C)NC(C)(C)C4)nn3)cc2nc1C [Example 18-1, 2,3-dimethyl-7-(6-(methyl(2,2,6,6-tetramethylpiperidin-4-yl)amino)pyridazin-3-yl)quinoxalin-6-ol] | 3.24 | 0.015 |  |  |
| Cc1cnc2cc(O)c(-c3ccc(N(C)C4CC(C)(C)NC(C)(C)C4)nn3)cc2n1 [Example 18-2, 2-methyl-7-(6-(methyl(2,2,6,6-tetramethylpiperidin-4-yl)amino)pyridazin-3-yl)quinoxalin-6-ol] | 3.31 | 0.009 |  |  |
| Cc1cnc2cc(-c3ccc(N(C)C4CC(C)(C)NC(C)(C)C4)nn3)c(O)cc2n1 [Example 18-3, 3-methyl-7-(6-(methyl(2,2,6,6-tetramethylpiperidin-4-yl)amino)pyridazin-3-yl)quinoxalin-6-ol] | 2.72 | 0.016 |  |  |
| COc1ccnc2cc(O)c(-c3ccc(N(C)C4CC(C)(C)NC(C)(C)C4)nn3)cc12 [Example 19-1, 4-methoxy-6-(6-(methyl(2,2,6,6-tetramethylpiperidin-4-yl)amino)pyridazin-3-yl)quinolin-7-ol] | 2.65 | 0.01 |  |  |
| Cc1cc(N2CCC2)c2cc(-c3ccc(N(C)C4CC(C)(C)NC(C)(C)C4)nn3)c(O)cc2n1 [Example 20-1, 4-(azetidin-1-yl)-2-methyl-6-(6-(methyl(2,2,6,6-tetramethylpiperidin-4-yl)amino)pyridazin-3-yl)quinolin-7-ol] | 2.86 | 0.084 |  |  |
| Cc1cc(C#N)c2cc(-c3ccc(N(C)C4CC(C)(C)NC(C)(C)C4)nn3)c(O)cc2n1 [Example 20-2, 7-hydroxy-2-methyl-6-(6-(methyl(2,2,6,6-tetramethylpiperidin-4-yl)amino)pyridazin-3-yl)quinoline-4-carbonitrile] | 2.68 | 0.048 |  |  |
| Cc1cc(C2CC2)c2cc(-c3ccc(N(C)C4CC(C)(C)NC(C)(C)C4)nn3)c(O)cc2n1 [Example 20-3, 4-cyclopropyl-2-methyl-6-(6-(methyl(2,2,6,6-tetramethylpiperidin-4-yl)amino)pyridazin-3-yl)quinolin-7-ol] | 2.72 | 0.065 |  |  |
| Cc1cc(C2=CCOCC2)c2cc(-c3ccc(N(C)C4CC(C)(C)NC(C)(C)C4)nn3)c(O)cc2n1 [Example 20-4, 4-(3,6-dihydro-2H-pyran-4-yl)-2-methyl-6-(6-(methyl(2,2,6,6-tetramethylpiperidin-4-yl)amino)pyridazin-3-yl)quinolin-7-ol] | 2.72 | 0.166 |  |  |
| Cc1cc(C2CCOCC2)c2cc(-c3ccc(N(C)C4CC(C)(C)NC(C)(C)C4)nn3)c(O)cc2n1 [Example 20-5, 2-methyl-6-(6-(methyl(2,2,6,6-tetramethylpiperidin-4-yl)amino)pyridazin-3-yl)-4-(tetrahydro-2H-pyran-4-yl)quinolin-7-ol] | 2.69 | 0.286 |  |  |
| Cc1cc(C2COC2)c2cc(-c3ccc(N(C)C4CC(C)(C)NC(C)(C)C4)nn3)c(O)cc2n1 [Example 20-6, 2-methyl-6-(6-(methyl(2,2,6,6-tetramethylpiperidin-4-yl)amino)pyridazin-3-yl)-4-(oxetan-3-yl)quinolin-7-ol] | 3.18 | 0.165 |  |  |
| CN(C)c1ccnc2cc(O)c(-c3ccc(N(C)C4CC(C)(C)NC(C)(C)C4)nn3)cc12 [Example 21-1, 4-(dimethylamino)-6-(6-(methyl(2,2,6,6-tetramethylpiperidin-4-yl)amino)pyridazin-3-yl)quinolin-7-ol] | 3.01 | 0.06 |  |  |
| CN(c1ccc(-c2cc3c(=O)nc[nH]c3cc2O)nn1)C1CC(C)(C)NC(C)(C)C1 [Example 22-1, 7-hydroxy-6-(6-(methyl(2,2,6,6-tetramethylpiperidin-4-yl)amino)pyridazin-3-yl)quinazolin-4(1H)-one] | 2.58 | 0.11 |  |  |

Reference: patent US11672799B2, “1,4-disubstituted pyridazine quinolne analogs there of and methods for treating SMN-deficiency-related conditions” (Novartis AG, priority 2013, dated 2023)
